US6093723A, “4-substituted beta-carbolines and analogs thereof” (Boehringer Ingelheim Pharmaceuticals, Inc., priority 1997, dated 2000)
Read-outs that look alike come from different tables or passages of the source.

Key:
[1] = system: Ca^+2 influx in Jurkat cells (clone E6-1); assay: Calcium influx assay (thapsigargin-stimulated, Fluo-3); type: cell-based; settings: Homo sapiens; Jurkat cells clone E6-1, thapsigargin 100 nM, 10 min preincubation
Description: Jurkat cells (clone E6-1) are pelleted by centrifugation, washed twice, and resuspended in RPMI 1640 containing, […], 1 % fetal calf serum, 3 μM Fluo-3-AM, 13.5 μl/ml Pluronic F 127 (Molecular Probes) and incubated for 1 hour at 37° C. The loaded cells are washed twice in Hanks Balanced Salt Solution containing 10 mM HEPES. The cells are resuspended in HBSS containing 10 mM HEPES, and dispensed into 96-well Dynatech black microtiter plates at 2×10^5 cells/well. The cells are preincubated with compounds for 10 minutes at room temperature. Baseline fluorescence of unstimulated cells is measured using an SLT fluorescent microtiter plate reader with an excitation wavelength of 495 nm and emission wavelength of 538 nm. Thapsigargin is then added to a final concentration of 100 nM. Following a 5 minute incubation, fluorescence of thapsigargin treated cells is measured. Delta fluorescence values are determined by subtracting baseline fluorescence values from thapsigargin induced fluorescence values.

[2] = system: IL-2 production in T lymphocytes (CD3+/CD4+ cells); assay: IL-2 production assay, Protocol B (antiCD3/antiCD28 as stimuli); type: cell-based; settings: T-lymphocyte; human T lymphocytes, anti-CD3/anti-CD28 and goat anti-mouse coated beads, 16 hour
Description: Protocol B (antiCD3/antiCD28 as stimuli)
Human peripheral blood is obtained from healthy donors by venipuncture and the mononuclear cell fraction is prepared by centrifugation on Ficoll Hypaque (Phamacia) density gradients. Contaminating red blood cells are lysed and the CD3+/CD4+ cells are purified using immunoaffinity columns (R&D Systems or CellPro). The T lymphocytes are plated at 1-1.5×10^5 cells/well in a 96 well microtiter plate, and incubated with serial dilutions of compounds for 20 minutes at 37° C. The T cells are activated by the addition of 0.6 ng/ml anti-CD3 (Immunotech), 500 ng/ml anti-CD28 (Biodesign) and 2×10^5 goat anti-mouse coated beads (Dynal). The final volume of the assay is 200 μl. Following a 16 hour incubation at 37° C., the cells are pelleted, and the supernatants are removed and collected and stored at -70° C. until assayed for interleukin-2 using a commercial ELISA kit (R&D Systems).

[3] = system: allogeneic cell transplant response (T-cell-mediated immune response, popliteal lymph node); assay: Allogeneic cell transplant response in mice (popliteal lymph node weight); type: in vivo, mice (DBA donors, C57B1/6 recipients); settings: 1 mg/kg, dosed one hour prior to cell injection and daily thereafter, ~four days
Text: Allogeneic Cell Transplant Response in Mice
The ability of cells to recognize other cells from self or from another genetically different individual (non-self) is an important property in maintaining the integrity of tissue and organ structure. The allogeneic cell transplant response is therefore an important model for studies of transplant rejection. This T-cell-mediated immune response can be induced in adult mice by the injection of lymphocytes from an histoincompatible mouse strain. This response is characterized by T cell proliferation which is limited to the popliteal lymph node that receives drainage from the footpad area. No in vitro system exists that can exactly duplicate completely this in vivo response. The assay is commonly used to evaluate new and novel potential immunosuppressive molecules.
Experiments are conducted using male or female mice (20-26 grams). Any histoincompatible mouse strains suffice for donor and recipient populations. Typically DBA mice are used as donors and C57B1/6 mice are used as recipients. A minimum of 1 week stabilization and conditioning period is usually required before use of the mice. Each study utilizes approximately 36 recipient mice divided into groups of 6.
Donor mice are sacrificed by CO2 asphyxiation and spleens are removed and a cell suspension is prepared. The cell suspension (1.0×10^7/metatarsal in 0.05 ml) is injected I.D. into the dorsal metatarsal skin of recipient mice. Four days later, the animals are sacrificed by CO2 asphyxiation and the popliteal nodes are removed and weighed. Groups of mice receiving putative immunosuppressive agents are dosed subcutaneously,intraperitoneally or orally one hour prior to cell injection and daily thereafter. The tests last approximately four days. The assay involves no footpad swelling and only a moderate increase in the size of the popliteal lymph node. Student's t test is used to determine significant differences between popliteal lymph nodes of groups of untreated mice and those mice treated with putative immunosuppressive agents.

[4] = system: IL-2 production in CD3+/CD4+ cells; assay: IL-2 production assay, Protocol A (ionomycin and PMA as stimuli); type: cell-based; settings: human CD3+/CD4+ cells, ionomycin 1 μg/ml and PMA 10 ng/ml, 16 hr
Description: Protocol A (ionomycin and […] as stimuli)
Human peripheral blood is obtained from healthy donors by venipuncture and the mononuclear cell fraction is prepared by centrifugation on Ficoll Hypaque (Phamacia) density gradients. Contaminating red blood cells are lysed and the CD3+/CD4+ cells are purified using immunoaffinity columns (R&D Systems or CellPro). The cells are resuspended and dispensed in 96 well microtiter plates. Test compounds are added to the cells approximately 15 minutes prior to stimulation with ionomycin (1 μg/ml) and PMA (10 ng/ml). The final volume of the assay is 100 μL. Following a 16 hr incubation at 37° C., the cells are pelleted by centrifugation, and the supernatants are collected and stored at -70° C. until assayed for IL-2 using a commercial ELISA kit (Genzyme).

IL-2 promoter = IL-2 promoter assay (luciferase reporter in Jurkat cells); type: cell-based; settings: Homo sapiens
Text: All the known regulatory features of IL-2 gene are contained within a ~300 bp sequence immediately upstream of the open reading frame. […] The resulting construct, pIL2P-luc, and a vector containing a neomycin resistance gene, pcDNA/Neo (Invitrogen), are linearized and stably transfected into Jurkat cells (a human T cell line) by electroporation.
For screening compounds, the cells are pelleted by centrifugation, washed once with PBS, resuspended in RPMI (phenol red-free) containing 5% FBS, and dispensed into 96-well, white microtiter plates (Packard) at 50,000 cells/well. The cells are pre-incubated with compounds (1 μg/ml) for 15 min prior to addition of ionomycin (1 μg/ml) and PMA (10 ng/ml) in a final volume of 100 μl. Following a 5 hr incubation at 37° C. in a humidified incubator, 100 μl of Luc-Lite lysis buffer/luciferase assay buffer (Promega) is added and luminescence measured using a Packard TopCount scintillation counter/luminometer.

[5] = Jurkat luciferase reporter cells, ionomycin 1 μg/ml and PMA 10 ng/ml, 5 hr, read-out: IL-2 PROMOTER IC50

| SMILES | IC50 [1] [µM] | IC50 [2] [µM] | ALLOGENEIC CELL TRANSPLANT % [3] [%] | IC50 [4] [µM] | IC50 (IL-2 promoter; [5]) [µM] | IC50 (IL-2 promoter; Jurkat, read-out: inhibition of luciferase activity, IC50) [µM] |
| --- | --- | --- | --- | --- | --- | --- |
| Cc1ccc(-c2cncc3[nH]c4ccccc4c23)cc1 [Compound 1, 4-(p-Methylphenyl)-β-carboline] | 0.3 | 6.2 | 38 | 2 | 1.5 | – |
| c1ccc(-c2cncc3[nH]c4ccccc4c23)cc1 [Compound 2, 4-Phenyl-β-carboline] | 2.2 | – | – | 14 | – | – |
| CCCc1cncc2[nH]c3ccccc3c12 [Compound 3, 4-Propyl-β-carboline] | 17.2 | 21 | – | 38 | – | – |
| COc1ccc(-c2cncc3[nH]c4ccc(Cl)cc4c23)cc1 [Compound 6] | 14 | > 25 | – | 9.2 | 3.2 | – |
| COc1ccc(-c2cncc3c2c2ccccc2n3C)cc1 [Compound 8] | 2.2 | 7.4 | – | > 20 | – | – |
| Cc1cccc(-c2cncc3[nH]c4ccccc4c23)c1 [Compound 9] | 1.1 | > 25 | – | 5 | – | – |
| COc1ccc(-c2cncc3c2c2ccccc2n3Cc2ccccc2)cc1 [Compound 10] | 4.6 | > 25 | – | 27 | – | – |
| COc1ccccc1-c1cncc2[nH]c3ccccc3c12 [Compound 11] | 6.4 | 20 | – | 3 | – | – |
| CCOc1ccc(-c2cncc3[nH]c4ccccc4c23)cc1 [Compound 12] | 1.2 | 4.5 | 49 | 0.3 | – | – |
| Clc1ccc(-c2cncc3[nH]c4ccccc4c23)cc1 [Compound 13] | 0.5 | 8.1 | – | 0.8 | – | – |
| c1cncc(-c2cncc3[nH]c4ccccc4c23)c1 [Compound 14] | 29 | 22 | – | 36 | – | – |
| Cc1ccc(-c2cncc3[nH]c4cccc(C)c4c23)cc1 [Compound 15] | 0.9 | 9 | – | – | – | – |
| Cc1ccc(-c2cncc3[nH]c4ccc(C)cc4c23)cc1 [Compound 16] | 4.5 | > 25 | – | – | – | – |
| Cc1ccc(-c2cncc3[nH]c4cc(C)ccc4c23)cc1 [Compound 17] | 0.4 | 4.2 | – | – | – | – |
| Cc1ccc(-c2cncc3[nH]c4c(C)cccc4c23)cc1 [Compound 18] | 0.7 | 5.4 | – | – | – | – |
| CCOC(=O)c1ccc(-c2cncc3[nH]c4ccccc4c23)cc1 [Compound 19] | 3.4 | 6.3 | – | – | – | – |
| CC(C)c1ccc(-c2cncc3[nH]c4ccccc4c23)cc1 [Compound 20] | 0.3 | 1.1 | – | – | – | – |
| Oc1ccc(-c2cncc3[nH]c4ccccc4c23)cc1 [Compound 21] | 2.9 | – | – | – | – | – |
| COc1ccc2c(c1)[nH]c1cncc(-c3ccc(C)cc3)c12 [Compound 22] | 1.7 | 5.8 | – | – | – | – |
| OCc1ccc(-c2cncc3[nH]c4ccccc4c23)cc1 [Compound 23] | 15.2 | – | – | – | – | – |
| CN(C)c1ccc(-c2cncc3[nH]c4ccccc4c23)cc1 [Compound 24] | 1.6 | 0.17 | – | – | – | – |

| SMILES | IC50 [1] [µM] | IC50 [2] [µM] | ALLOGENEIC CELL TRANSPLANT % [3] [%] | IC50 [4] [µM] | IC50 (IL-2 promoter; [5]) [µM] | IC50 (IL-2 promoter; Jurkat, read-out: inhibition of luciferase activity, IC50) [µM] |
| --- | --- | --- | --- | --- | --- | --- |
| O=C(c1ccccc1)c1ccc(-c2cncc3[nH]c4ccccc4c23)cc1 [Compound 25] | 7.7 | – | – | – | – | – |
| Cn1c2ccccc2c2c(-c3ccc(C(F)(F)F)cc3)cncc21 [Compound 26] | 2.5 | > 25 | – | – | – | – |
| COc1ccc(-c2cncc3[nH]c4ccccc4c23)c(OC)c1 [Compound 27] | 1.3 | 5.6 | – | – | – | – |
| COc1cc(OC)cc(-c2cncc3[nH]c4ccccc4c23)c1 [Compound 28] | 0.7 | 4.8 | – | – | – | – |
| COc1ccc(-c2cncc3[nH]c4ccccc4c23)cc1OC [Compound 29] | 2.7 | 1.6 | – | – | – | – |
| Cc1ccc(-c2cncc3[nH]c4ccccc4c23)c(C)c1 [Compound 30] | 1.7 | 5.9 | – | – | – | – |
| COc1cc(-c2cncc3[nH]c4ccccc4c23)cc(OC)c1OC [Compound 31] | 3.3 | 2.8 | – | – | – | – |
| Clc1ccc(-c2cncc3[nH]c4ccccc4c23)cc1Cl [Compound 32] | 1.5 | 8.9 | – | – | – | – |
| COc1ccc(-c2cncc3[nH]c4ccccc4c23)cc1C [Compound 33] | 1 | 5.3 | – | – | – | – |
| Cc1ccc(-c2cncc3[nH]c4cc(CO)ccc4c23)cc1 [Compound 34] | 2.4 | 7.7 | – | – | – | – |
| COC(=O)c1ccc2c(c1)[nH]c1cncc(-c3ccc(C)cc3)c12 [Compound 35] | 0.7 | – | – | – | – | – |
| COC(=O)c1cccc2c1[nH]c1cncc(-c3ccc(C)cc3)c12 [Compound 36] | 3.3 | 17 | – | – | – | – |
| c1ccc(Cc2cncc3[nH]c4ccccc4c23)cc1 [Compound 37] | 2.2 | > 25 | – | – | – | – |
| c1ccc2c(c1)[nH]c1cncc(C3CCCCC3)c12 [Compound 38] | 2.2 | > 25 | – | – | – | – |
| Cc1ccc(-c2cncc3[nH]c4ccccc4c23)s1 [Compound 39] | 0.7 | 9.5 | – | – | – | – |
| Cc1ccnc(-c2cncc3[nH]c4ccccc4c23)c1 [Compound 40] | 14.4 | > 25 | – | – | – | – |
| Cc1cnc(-c2cncc3[nH]c4ccccc4c23)s1 [Compound 41] | 17.7 | > 25 | – | – | – | – |
| c1ccc2cc(-c3cncc4[nH]c5ccccc5c34)ccc2c1 [Compound 42] | 1.3 | 2.5 | – | – | – | – |
| Cc1noc(-c2cncc3[nH]c4ccccc4c23)n1 [Compound 43] | > 45 | > 25 | – | – | – | – |
| CC(C)c1noc(-c2cncc3[nH]c4ccccc4c23)n1 [Compound 44] | 1.3 | < 10 | – | – | – | – |
| C=CC[C@@H]1/C=C(\C)C[C@H](C)C[C@H](OC)[C@H]2O[C@@](O)(C(=O)C(=O)N3CCCC[C@H]3C(=O)O[C@H](/C(C)=C/[C@@H]3CC[C@@H](O)[C@H](OC)C3)[C@H](C)[C@@H](O)CC1=O)[C@H](C)C[C@@H]2OC [FK506, reference compound] | – | – | – | – | – | 0.0003 |
